This note sets out measurements from patent US11787839B2, “Targeting α2δ-1-bound glutamate receptors for treating diseases and disorders” (Board of Regents, The University of Texas System, priority 2017, dated 2023).

The subject of series [1] is WT mice. The experiment in a line: Paclitaxel-induced pain hypersensitivity in mice. Type of series: in vivo, mouse. How it is done: To induce neuropathic pain, rats and mice were intraperitoneally injected with paclitaxel (2 mg/kg; TEVA Pharmaceuticals, North Wales, Pa.) every 2 days for a total of 4 injections (days 1, 3, 5 and 7; total dose, 8 mg/kg), as described previously (Polomano et al., 2001). Animals in the control group were intraperitoneally injected with the vehicle (Cremophor EL/ethanol, 1:1) on the same 4 days. The presence of tactile allodynia was confirmed 10 to 12 days after drug treatment. Intrathecal catheters were implanted in some paclitaxel-treated rats during isoflurane-induced anesthesia. […]
(§1) To assess the thermal sensitivity of rats, the were placed individually on the glass surface of a thermal testing apparatus (IITC Life Sciences, Woodland Hills, Calif.). […] The paw withdrawal latency was recorded with a timer, and the hindpaw was tested twice to obtain an average time. […] After the threshold temperature was recorded, the mice were immediately removed from the plate. The heat threshold measurement was repeated 30 min later, and the average of the 2 recorded temperatures was considered as the heat threshold. The cold threshold was measured by cooling the plate from 30° C. at a rate of 6° C./min until nocifensive behaviors were observed. […]

Series [2] deals with α2δ-1. The series is described as follows: α2δ-1 expression, α2δ-1-GluN1 complex and synaptosomal proteins after paclitaxel. Type of series: in vivo, rat. The conditions noted are these: paclitaxel- vs vehicle-treated rats. On the procedure:
(§2) To induce neuropathic pain, rats and mice were intraperitoneally injected with paclitaxel (2 mg/kg; TEVA Pharmaceuticals, North Wales, Pa.) every 2 days for a total of 4 injections (days 1, 3, 5 and 7; total dose, 8 mg/kg), as described previously (Polomano et al., 2001). Animals in the control group were intraperitoneally injected with the vehicle (Cremophor EL/ethanol, 1:1) on the same 4 days. The presence of tactile allodynia was confirmed 10 to 12 days after drug treatment. Intrathecal catheters were implanted in some paclitaxel-treated rats during isoflurane-induced anesthesia. Briefly, a small puncture was made in the atlanto-occipital membrane of the cisterna magna and inserted a PE-10 catheter with the caudal tip reaching the lumbar enlargement of the spinal cord (Chen et al., 2014a; Xie et al., 2016).
Quantitative PCR: Rats were deeply anesthetized with 5% isoflurane, and the DRG and dorsal half of spinal cord tissues at the L5 and L6 levels were removed. Total RNA was extracted from the DRG and spinal cord tissues using TRIsure (Cat. #BIO-38032, Bioline, Taunton, Mass.). After treatment with RNase-free DNase (Cat. #79254, QIAGEN, Hilden, Germany), 500 ng RNA was used for reverse transcription with a RevertAid RT Reverse Transcription Kit (Cat. #K1619, Thermo Fisher Scientific, Waltham, Mass.). One μL of 5-times diluted cDNA was added to a 10-μL reaction volume with SYBR Green Real-Time PCR Mix (Cat. #A25780, Thermo Fisher Scientific). Real-time PCR was performed using a QuantStudio 7 Flex Real-Time PCR System (Applied Biosystems, Waltham, Mass.). The thermal cycling conditions used were: 1 cycle at 95° C. for 10 min, 40 cycles at 95° C. for 15 s, and 60° C. for 60 s. The following primers were used: α2δ-1 forward, […] (SEQ ID NO:60); α2δ-1 reverse, […] (SEQ ID NO:61); α2δ-2 forward, […] (SEQ ID NO:62); α2δ-2 reverse, […] (SEQ ID NO:63); α2δ-3 forward, […] (SEQ ID NO:64); α2δ-3 reverse, […] (SEQ ID NO:65); Gapdh forward, […] (SEQ ID NO:66); Gapdh reverse. […] (SEQ ID NO:67). Relative mRNA levels were calculated using the 2−ΔΔCT method and normalized to the Gapdh level in the same sample.
Coimmunoprecipitation using spinal cord tissue membrane extracts: Tissues from the dorsal halves of the rat spinal cord at the L5 and L6 levels were collected under isoflurane anesthesia and homogenized in ice-cold hypotonic buffer (20 mM Tris [pH 7.4], 1 mM CaCl2), 1 mM MgCl2, and protease inhibitors) for extracting membrane proteins. The nuclei and unbroken cells were removed by centrifugation at 300×g for 5 min, and the supernatant was centrifuged for 20 min at 21,000×g. The pellets were re-suspended and solubilized in immunoprecipitation buffer (50 mM Tris [pH7.4], 250 mM NaCl, 10% glycerol, 0.5% NP-40, 20 mM NaF, 1 mM Na3VO4, 10 mM N-ethylmaleimide, 1 mM phenylmethylsulfonyl fluoride, 2 mM benzamide, and protease inhibitors), and the soluble fraction was incubated at 4° C. overnight with Protein A/G beads ([…], Millipore, Darmstadt, Germany) prebound to mouse anti-GluN1 antibody (#75-272, 1:1000, NeuroMab, Davis, Calif.). Protein A/G beads prebound to mouse IgG were uses as the control. All samples were washed 3 times with immunoprecipitation buffer and then immunoblotted with rabbit anti-α2δ-1 (#ACC-015, 1:500, Alomone Labs, Jerusalem, Israel) and rabbit anti-GluN1 antibodies (#G8913, 1:1,000, Sigma-Aldrich, St. Louis, Mo.). The amount of the α2δ-1-GluN1 protein complex was calculated by normalizing the amount of α2δ-1 to that of GluN1 on the same gel. […]

Series [3] concerns paclitaxel-treated rats. The series is described as follows: Paclitaxel-induced pain hypersensitivity in rats. The format is in vivo, rat. The conditions noted are these: paclitaxel- vs vehicle-treated rats. How it is done: as §2
Behavioral assessment of nociception: To measure tactile allodynia, mice or rats were individually placed on a mesh floor within a suspended chamber. […]
To quantify the mechanical nociceptive threshold in rats, the paw pressure (Randall-Selitto) test was conducted on the left hindpaw using an analgesiometer (Ugo Basile, Varese, Italy). […] When the rat withdrew its paw or vocalized, the pedal was immediately released, and the withdrawal threshold was recorded (Chen et al., 2014a). […]
as §1

Series [4] has as its target presynaptic NMDARs of spinal lamina II neurons (Rattus norvegicus, UniProt P35439+Q00959+Q00960).

Chain of presynaptic NMDARs of spinal lamina II neurons (Q00959 20-1464 limits assumed, other chains not shown): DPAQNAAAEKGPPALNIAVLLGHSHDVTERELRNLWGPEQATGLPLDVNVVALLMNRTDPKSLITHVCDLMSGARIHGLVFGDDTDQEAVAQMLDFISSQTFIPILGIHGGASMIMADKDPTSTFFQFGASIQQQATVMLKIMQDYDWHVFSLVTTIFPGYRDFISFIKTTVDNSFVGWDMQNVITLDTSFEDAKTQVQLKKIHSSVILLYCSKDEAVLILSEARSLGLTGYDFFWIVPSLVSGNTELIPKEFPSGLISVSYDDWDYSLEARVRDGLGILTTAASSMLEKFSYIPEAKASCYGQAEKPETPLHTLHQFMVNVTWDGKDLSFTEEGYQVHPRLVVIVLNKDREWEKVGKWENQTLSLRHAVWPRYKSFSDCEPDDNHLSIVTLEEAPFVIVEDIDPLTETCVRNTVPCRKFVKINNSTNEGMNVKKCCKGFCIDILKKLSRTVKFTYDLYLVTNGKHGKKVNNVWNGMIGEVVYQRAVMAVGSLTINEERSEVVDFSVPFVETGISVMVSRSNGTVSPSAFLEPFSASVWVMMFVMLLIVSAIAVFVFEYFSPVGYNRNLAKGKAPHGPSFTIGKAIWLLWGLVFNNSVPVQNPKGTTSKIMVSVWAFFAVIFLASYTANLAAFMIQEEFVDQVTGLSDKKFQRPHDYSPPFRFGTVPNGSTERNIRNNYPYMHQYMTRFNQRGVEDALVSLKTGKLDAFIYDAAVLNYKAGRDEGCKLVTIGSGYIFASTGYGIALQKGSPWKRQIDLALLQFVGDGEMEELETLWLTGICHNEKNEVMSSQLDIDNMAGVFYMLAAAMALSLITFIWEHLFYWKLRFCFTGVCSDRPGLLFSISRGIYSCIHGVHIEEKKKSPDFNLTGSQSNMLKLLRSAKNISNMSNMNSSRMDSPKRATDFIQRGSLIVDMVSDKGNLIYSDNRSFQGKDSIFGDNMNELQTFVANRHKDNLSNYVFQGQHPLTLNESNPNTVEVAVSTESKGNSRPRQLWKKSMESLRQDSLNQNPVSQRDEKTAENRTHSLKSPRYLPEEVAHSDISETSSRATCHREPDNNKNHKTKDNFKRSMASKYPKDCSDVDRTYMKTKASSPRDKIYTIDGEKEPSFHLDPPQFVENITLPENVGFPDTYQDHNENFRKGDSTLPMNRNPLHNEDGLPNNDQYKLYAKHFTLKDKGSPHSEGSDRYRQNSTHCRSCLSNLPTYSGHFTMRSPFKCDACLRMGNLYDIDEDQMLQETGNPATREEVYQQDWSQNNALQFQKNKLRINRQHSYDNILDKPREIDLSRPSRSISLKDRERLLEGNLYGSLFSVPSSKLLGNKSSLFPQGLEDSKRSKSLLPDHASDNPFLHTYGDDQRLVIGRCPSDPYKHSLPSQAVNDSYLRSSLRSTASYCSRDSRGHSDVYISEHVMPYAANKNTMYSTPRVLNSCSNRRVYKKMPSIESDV
Chain of presynaptic NMDARs of spinal lamina II neurons (Q00960 27-1482, other chains not shown): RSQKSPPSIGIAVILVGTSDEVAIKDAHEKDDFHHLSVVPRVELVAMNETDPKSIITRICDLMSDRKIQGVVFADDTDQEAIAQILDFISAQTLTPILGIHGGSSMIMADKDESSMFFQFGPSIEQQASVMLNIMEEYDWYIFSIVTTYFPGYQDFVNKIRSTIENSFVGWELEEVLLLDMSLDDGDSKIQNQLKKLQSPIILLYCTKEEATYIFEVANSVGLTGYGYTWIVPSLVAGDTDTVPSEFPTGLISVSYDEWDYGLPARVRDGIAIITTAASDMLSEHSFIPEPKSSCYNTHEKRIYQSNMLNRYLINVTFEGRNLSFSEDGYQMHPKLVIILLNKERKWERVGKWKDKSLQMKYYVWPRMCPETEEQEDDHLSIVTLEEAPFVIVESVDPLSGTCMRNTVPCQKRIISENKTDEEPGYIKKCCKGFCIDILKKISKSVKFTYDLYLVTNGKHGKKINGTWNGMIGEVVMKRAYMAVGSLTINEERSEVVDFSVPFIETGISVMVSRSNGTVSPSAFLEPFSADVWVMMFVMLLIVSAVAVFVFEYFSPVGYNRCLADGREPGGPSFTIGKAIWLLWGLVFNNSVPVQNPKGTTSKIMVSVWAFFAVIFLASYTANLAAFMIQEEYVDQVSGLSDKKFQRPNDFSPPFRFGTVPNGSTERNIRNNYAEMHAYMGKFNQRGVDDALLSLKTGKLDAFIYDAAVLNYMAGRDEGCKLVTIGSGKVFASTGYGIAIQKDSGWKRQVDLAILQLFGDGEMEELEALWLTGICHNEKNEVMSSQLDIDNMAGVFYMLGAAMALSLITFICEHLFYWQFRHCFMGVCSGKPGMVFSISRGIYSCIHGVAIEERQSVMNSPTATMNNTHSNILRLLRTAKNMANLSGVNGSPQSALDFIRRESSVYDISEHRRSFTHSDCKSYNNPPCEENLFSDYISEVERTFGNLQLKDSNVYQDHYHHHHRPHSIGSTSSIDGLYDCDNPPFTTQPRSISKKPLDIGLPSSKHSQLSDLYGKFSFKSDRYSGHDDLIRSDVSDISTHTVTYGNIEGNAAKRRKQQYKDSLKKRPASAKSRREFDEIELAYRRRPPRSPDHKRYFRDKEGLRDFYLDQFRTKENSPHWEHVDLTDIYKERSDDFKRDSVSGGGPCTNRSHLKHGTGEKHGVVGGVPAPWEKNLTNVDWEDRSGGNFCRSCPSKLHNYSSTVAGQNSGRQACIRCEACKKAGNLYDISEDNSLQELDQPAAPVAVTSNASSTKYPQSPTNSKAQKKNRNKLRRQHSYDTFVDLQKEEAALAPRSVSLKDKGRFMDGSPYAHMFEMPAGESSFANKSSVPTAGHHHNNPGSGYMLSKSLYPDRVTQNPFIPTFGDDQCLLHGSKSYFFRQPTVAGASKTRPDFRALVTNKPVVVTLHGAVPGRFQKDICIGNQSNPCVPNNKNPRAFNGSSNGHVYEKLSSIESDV

Regarding `CC(=O)O[C@H]1C(=O)[C@@]2(C)[C@H]([C@H](OC(=O)c3ccccc3)[C@]3(O)C[C@H](OC(=O)[C@H](O)[C@@H](NC(=O)c4ccccc4)c4ccccc4)C(C)=C1C3(C)C)[C@]1(OC(C)=O)CO[C@@H]1C[C@@H]2O` [paclitaxel], in series [1], the “duration of hypersensitivity after the last injection” value was “at least 10 days”; the “pain hypersensitivity after systemic paclitaxel” value was “induced tactile allodynia and heat and cold hyperalgesia”. In series [2], the “mRNA level of α2δ-2 or α2δ-3 in the DRG and dorsal spinal cord” value is recorded as “similar”; the “α2δ-1-GluN1 complex in the dorsal spinal cord” value is on record as “significantly higher”; the “α2δ-1 and GluN1 protein levels in spinal synaptosomes” value was “significantly higher”; the “α2δ-1 mRNA levels in the DRG and dorsal spinal cord” value was “substantially higher”. For the same molecule, the “α2δ-1 protein levels in the DRG and spinal cord” value in series [2] is recorded as “much higher”. The “withdrawal thresholds to tactile, noxious pressure and noxious heat stimuli” value in series [3] was “lower withdrawal thresholds”. Further, in series [4], the “baseline amplitude of evoked monosynaptic EPSCs” value is listed as “significantly larger”, the “baseline frequency of mEPSCs in lamina II neurons” value was “significantly higher” and the “paired-pulse ratio (PPR) in lamina II neurons” value is recorded as “significantly reduced”.
